Entries after “also recorded” stand apart in the source; their conditions may differ.
Legend:
[1] = biological target: T1, CRY1 (Homo sapiens, UniProt Q16526); test: Protein immunoblot, unsynchronized U2-OS cells, CRY1; type: cell-based; conditions: Western blot
T1 construct: To evaluate the effect of FORMULA I on the endogenous protein and mRNA level of clock genes; endogenous in cells; host or cells: U2-OS
T1 sequence (Q16526 1-586): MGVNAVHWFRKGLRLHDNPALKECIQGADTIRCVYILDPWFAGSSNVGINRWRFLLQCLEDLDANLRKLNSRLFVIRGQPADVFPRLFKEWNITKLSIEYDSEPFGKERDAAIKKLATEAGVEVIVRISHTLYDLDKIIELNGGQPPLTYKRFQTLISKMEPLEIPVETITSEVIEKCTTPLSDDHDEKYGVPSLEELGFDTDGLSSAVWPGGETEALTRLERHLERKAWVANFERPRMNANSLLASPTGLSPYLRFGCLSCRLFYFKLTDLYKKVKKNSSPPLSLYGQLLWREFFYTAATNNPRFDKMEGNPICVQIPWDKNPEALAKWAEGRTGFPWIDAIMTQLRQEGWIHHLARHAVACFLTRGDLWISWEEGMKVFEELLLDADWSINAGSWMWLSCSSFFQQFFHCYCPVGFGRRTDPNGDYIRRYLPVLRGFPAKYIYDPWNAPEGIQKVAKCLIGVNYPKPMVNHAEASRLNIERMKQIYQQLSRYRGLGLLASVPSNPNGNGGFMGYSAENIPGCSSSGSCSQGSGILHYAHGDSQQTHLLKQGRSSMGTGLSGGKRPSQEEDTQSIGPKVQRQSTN
Procedure: (§1) Cells were lysed in RIPA buffer (50 mM Tris, 150 mM NaCl, 1% Triton-X, 0.1% SDS) with fresh Protease inhibitor cocktail (PIC). After centrifugation at 13000 rpm for 15 minutes at 4° C., supernatant was used to determine the protein amount using Pierce Protein Assay (Thermo Scientific) according to the manufacturer's instruction. Mice liver samples were homogenized and lysed with Dounce homogenizer and RIPA buffer. After homogenization samples were incubated 10 minutes on ice. After centrifugation 13000 rpm 15 minutes at 4° C. supernatant was used for the whole cell lysate. Subcellular fractionation of liver samples: Liver samples were homogenized with cytosolic lysis buffer (10 mM HEPES pH 7.9, 10 mM KCl, 0.1 mM EDTA, 0.05% NP40, proteasome inhibitor) by pipetting 40 times with a cut tip. Then samples were incubated 10 minutes on ice and centrifuged for 3 minutes at 3000 rpm at 4° C. Supernatant was saved in a new tube, and pellet was processed for the nuclear fraction. Supernatant was centrifuged at 13000 rpm for 3 minutes at 4° C. where new supernatant saved as the cytosolic fraction. […] ECL buffer system (Advansta WesternBright) was used to visualize HRP chemi-luminescence via BioRad ChemiDoc Touch visualizer.

[2] = biological target: T2, CRY2 (Homo sapiens, UniProt Q49AN0); test: Protein immunoblot, unsynchronized U2-OS cells, CRY2; type: cell-based; conditions: Western blot
T2 construct: To evaluate the effect of FORMULA I on the endogenous protein and mRNA level of clock genes; endogenous in cells; host or cells: U2-OS
T2 sequence (Q49AN0 1-593): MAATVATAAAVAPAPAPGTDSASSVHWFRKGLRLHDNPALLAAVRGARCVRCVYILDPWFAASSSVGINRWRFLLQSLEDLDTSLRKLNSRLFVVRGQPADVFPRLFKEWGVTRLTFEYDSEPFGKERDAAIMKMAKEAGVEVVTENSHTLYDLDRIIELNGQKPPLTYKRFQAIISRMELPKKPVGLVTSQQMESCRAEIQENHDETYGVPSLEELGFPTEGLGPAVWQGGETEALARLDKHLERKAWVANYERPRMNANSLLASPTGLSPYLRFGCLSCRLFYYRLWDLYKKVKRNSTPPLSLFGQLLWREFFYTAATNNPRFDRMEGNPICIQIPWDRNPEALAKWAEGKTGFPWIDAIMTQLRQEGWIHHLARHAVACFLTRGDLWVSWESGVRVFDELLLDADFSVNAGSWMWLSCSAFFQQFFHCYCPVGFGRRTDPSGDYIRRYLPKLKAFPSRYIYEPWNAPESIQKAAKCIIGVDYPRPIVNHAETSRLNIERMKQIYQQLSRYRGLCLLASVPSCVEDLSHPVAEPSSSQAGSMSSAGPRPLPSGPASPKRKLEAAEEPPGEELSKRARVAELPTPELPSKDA
Procedure: as §1

[3] = tested on: C57BL/6J mice; test: Repeated dose toxicity study, 5-day maximum tolerated dose; type: in vivo
Procedure: The single dose toxicity data were used to assist the selection of the doses in this repeated dose toxicity study. C57BL/6J mice (n=6 per group) were treated with 40, 80 or 150 mg/kg doses of FORMULA I intraperitoneally for 5 days. Control mice (n=4) were only treated with vehicle (DMSO:Cremophor EL:0.9% NaCl; 2.5:15:82.5, v/v, i.p.). Throughout the study, animals were monitored for mortality, clinical signs, body weight changes, body temperature, food and water consumptions, behaviour assessment and gross findings at the terminal necropsy. Body weights and body temperatures of mice were measured every day as an index of toxicity. Within 48 h after the last dose of FORMULA I administration, blood was collected from mice by cardiac puncture under isoflurane anesthesia. Hematological and biochemical analyzes were performed in blood. Liver, spleen, kidneys and lungs were removed and fixed in 10% formalin solution for histological examinations.

[4] = 150 mg/kg i.p. for 5 days, 3th day of injection

With `Cc1c(C(=O)N2CCc3ccccc32)oc2ccc3c(c12)C(=O)CC(C)(c1ccc(Cl)cc1)O3` (stereo not shown) [FORMULA I, 11-(4-chlorophenyl)-4-(2,3-dihydro-1H-indole-1-carbonyl)-3,11-dimethyl-5,10,dioxatricyclo[7.4.0.0,2,6,]trideca-1,3,6,8-tetraen-13-one] the “steady-state level of CRY1” value [1] was “level of CRY1 reduced; also recorded: decreased the steady-state level of CRY1”, the “level of CRY2” value [2] was “CRY2 levels were comparable” and the body temperature ([3]; 40 mg/kg i.p. for 5 days) was “comparable to the control animals”. For the same molecule, the clinical signs ([3]; 150 mg/kg i.p. for 5 days) was “hyporeflexia”, the deaths [3, 4] was 1/6 and the mortality [3, 4] was 16.6%. The “highest mean body weight loss” value ([3]; 150 mg/kg i.p., 3rd day of injection) was 6.3%, the clinical signs ([3]; 40 and 80 mg/kg i.p. for 5 days) was “no observed clinical signs” and the “body temperature (mild hypothermia)” value ([3]; 80 and 150 mg/kg i.p., first day) was 33.4-35.8 °C. The tolerability ([3]; doses of 5 and 80 mg/kg (so in the source), 5 days) was “well-tolerated”.
